{"source": "paper PMC2330188", "about": "(Acta Crystallographica Section F: Structural Biology and …, 2007)", "target": "5-formyltetrahydrofolate cyclo-ligase (BA4489) (Bacillus anthracis, UniProt A0A6L8PZ12)", "sequence (A0A6L8PZ12 2-192 limits assumed)": "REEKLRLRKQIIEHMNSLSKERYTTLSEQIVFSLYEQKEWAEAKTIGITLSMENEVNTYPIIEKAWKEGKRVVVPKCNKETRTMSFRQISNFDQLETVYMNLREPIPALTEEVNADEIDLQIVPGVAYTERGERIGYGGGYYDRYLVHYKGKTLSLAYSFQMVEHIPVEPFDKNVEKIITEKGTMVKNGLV", "data": [{"smiles": "O=P(O)(O)O", "note": "[phosphate]", "values": [{"measurement": "X-ray crystal structure, 1.6 Å", "value": "hydrolysed to ADP and inorganic phosphate"}]}]}
